Test results published in patent US7407940B2, “Antimicrobial hexapeptides” (Helix BioMedix Inc., priority 2005, dated 2008).
≈ marks a conversion by molar mass, not a printed value. Like-named read-outs stand apart in the source and are kept apart here. Where a SMILES comes first, the peptide text is derived from it. Where no end group is shown, it is not given here. The star is where a group is joined. Oleoyl = CCCCCCCC/C=C\CCCCCCCC(=O)*; Stearoyl = CCCCCCCCCCCCCCCCCC(=O)*; Palmitoyl = CCCCCCCCCCCCCCCC(=O)*; Tridecanoyl = CCCCCCCCCCCCC(=O)*; Undecanoyl = CCCCCCCCCCC(=O)*; Heptanoyl = CCCCCCC(=O)*; Octanoyl = CCCCCCCC(=O)*

How the values were obtained:
[1] = system: Candida albicans; format: cell-based
Description: (§1) MICs (minimal inhibitory concentrations) were determined for the hexapeptides of interest using a slightly modified version of the NCCLS (National Committee for Clinical Laboratory Standards) broth microdilution method as described previously (Steinberg et al., AAC 41: 1738, 1997). Briefly, antimicrobial agents were prepared as 10× concentrates in the most appropriate solvent. For the hexapeptide, 0.01% acetic acid containing 0.2% bovine serum albumin as a carrier protein was used. Inocula were prepared by resuspending colonies from a BAP (please spell out this term) in medium and adjusting the suspension to match that of a 0.5 McFarland standard. The suspension was diluted into fresh medium (as recommended by NCCLS for the organism) to give 2×10^5 to 7×10^5 CFU/ml for bacteria or 2×10^3 to 7×10^3 CFU/ml for Candida. After dispensing 100 μl aliquots of the microbial suspension into each well of a 96-well polypropylene microtiter plate, 11 μl of test compound was added. The MIC was defined as the lowest concentration of drug which prevented visible turbidity after 16 to 20 hours (bacteria) or 46 to 50 hours (Candida) at 35° C.

[2] = system: Pseudomonas aeruginosa; format: cell-based; design: MIC, lipid length SAR: unit not given here; settings: for MIC, lipid length SAR: P.aeruginosa
Description: as §1

[3] = system: Salmonella typhimurium 14028S; experiment: MIC, broth microdilution, S. typhimurium; format: cell-based; design: unit not given here; settings: for MIC, lipid length SAR: S.typhimurium; for Anti-microbial activity (MIC): S. typhimurium 14028S
Description: as §1

[4] = system: Escherichia coli UB1005; experiment: MIC, broth microdilution, E. coli; format: cell-based; design: unit not given here
Description: as §1

[5] = system: MRSA; experiment: Kill curve in 10% sheep serum-phosphate buffer against MRSA; format: cell-based, S. aureus; settings: 10% serum / biological environments
[6] = T.W. Candida #184, azole resistant clinical isolate
[7] = T.W. Candida #185 (CDR1,2), azole resistant clinical isolate
[8] = T.W. Candida #186 (CDR1,2), azole resistant clinical isolate
[9] = T.W. Candida #187 (CDR1,2), azole resistant clinical isolate
[10] = T.W. Candida #192 (CDR1,2), azole resistant clinical isolate
[11] = T.W. Candida #193, azole resistant clinical isolate
[12] = T.W. Candida #194, azole resistant clinical isolate
[13] = T.W. Candida #195, azole resistant clinical isolate
[14] = T.W. Candida #196 (CDR1,2), azole resistant clinical isolate
[15] = T.W. Candida #197, azole resistant clinical isolate
[16] = T.W. Candida #198, azole resistant clinical isolate
[17] = T.W. Candida #199 (CDR1,2), azole resistant clinical isolate

Clc1ccc(COC(Cn2ccnc2)c2ccc(Cl)cc2Cl)c(Cl)c1 (stereo not drawn) [Miconazole, reference compound]
MIC [1, 6]: > 256 µg/mL | MIC [1, 7]: > 256 µg/mL | MIC [1, 8]: > 256 µg/mL | MIC [1, 9]: > 256 µg/mL | MIC [1, 10]: > 256 µg/mL | MIC [1, 11]: > 256 µg/mL | MIC [1, 12]: > 256 µg/mL | MIC [1, 13]: > 256 µg/mL | MIC [1, 14]: 128 µg/mL (≈ 308 µM) | MIC [1, 15]: > 256 µg/mL | MIC [1, 16]: 128 µg/mL (≈ 308 µM) | MIC [1, 17]: > 256 µg/mL

CCCCCCCCCCC(=O)N[C@@H](CCCCN)C(=O)N[C@@H](Cc1ccccc1)C(=O)N[C@@H](CCCCN)C(=O)N[C@@H](Cc1c[nH]c2ccccc12)C(=O)N1CCC[C@H]1C(=O)N[C@@H](Cc1c[nH]c2ccccc12)C(N)=O [compound 79] (Undecanoyl-KFKWPW-NH2)
Minimal Inhibitory Concentrations (Mics) [2]: 8-16 Mg/Ml | Minimal Inhibitory Concentrations (Mics) [1]: 4-8 Mg/Ml

OIe-KFKWPW-NH2 (Oleoyl-KFKWPW-NH2; SMILES CCCCCCCC/C=C\CCCCCCCC(=O)N[C@@H](CCCCN)C(=O)N[C@@H](Cc1ccccc1)C(=O)N[C@@H](CCCCN)C(=O)N[C@@H](Cc1c[nH]c2ccccc12)C(=O)N1CCC[C@H]1C(=O)N[C@@H](Cc1c[nH]c2ccccc12)C(N)=O) [SEQ ID NO: 75]
MIC, lipid length SAR [2]: >128 | MIC, lipid length SAR [3]: >128

FPWKFK-NH2 [SEQ ID NO: 34]
Anti-microbial activity (MIC) [4]: >128 | Anti-microbial activity (MIC) [3]: >128

LAKLAK-NH2 [SEQ ID NO: 28]
Anti-microbial activity (MIC) [4]: >128 | Anti-microbial activity (MIC) [3]: >128

CC(=O)N1CCN(c2ccc(OCC3COC(Cn4ccnc4)(c4ccc(Cl)cc4Cl)O3)cc2)CC1 (stereo not drawn) [Ketoconazole, reference compound]
MIC [1, 6]: 64 µg/mL (≈ 120 µM) | MIC [1, 7]: 8 µg/mL (≈ 15.1 µM) | MIC [1, 8]: 8 µg/mL (≈ 15.1 µM) | MIC [1, 9]: 16 µg/mL (≈ 30.1 µM) | MIC [1, 10]: 32 µg/mL (≈ 60.2 µM) | MIC [1, 11]: 8 µg/mL (≈ 15.1 µM) | MIC [1, 12]: 16 µg/mL (≈ 30.1 µM) | MIC [1, 13]: 128 µg/mL (≈ 241 µM) | MIC [1, 14]: 32 µg/mL (≈ 60.2 µM) | MIC [1, 15]: > 256 µg/mL | MIC [1, 16]: 1 µg/mL (≈ 1.88 µM) | MIC [1, 17]: 16 µg/mL (≈ 30.1 µM)

SEQ ID NO:56 (Octanoyl-KWKWFW-NH2; SMILES CCCCCCCC(=O)N[C@@H](CCCCN)C(=O)N[C@@H](Cc1c[nH]c2ccccc12)C(=O)N[C@@H](CCCCN)C(=O)N[C@@H](Cc1c[nH]c2ccccc12)C(=O)N[C@@H](Cc1ccccc1)C(=O)N[C@@H](Cc1c[nH]c2ccccc12)C(N)=O)
ability to kill S. aureus in serum (in words) [5]: does not perform well in biological environments

KFKSFK-NH2 [SEQ ID NO: 21]
Anti-microbial activity (MIC) [4]: >128 | Anti-microbial activity (MIC) [3]: >128

Pal-KFKWPW-NH2 (Palmitoyl-KFKWPW-NH2; SMILES CCCCCCCCCCCCCCCC(=O)N[C@@H](CCCCN)C(=O)N[C@@H](Cc1ccccc1)C(=O)N[C@@H](CCCCN)C(=O)N[C@@H](Cc1c[nH]c2ccccc12)C(=O)N1CCC[C@H]1C(=O)N[C@@H](Cc1c[nH]c2ccccc12)C(N)=O) [SEQ ID NO: 73]
MIC, lipid length SAR [2]: >128 | MIC, lipid length SAR [3]: >128

Tri-KFKWPW-NH2 (Tridecanoyl-KFKWPW-NH2; SMILES CCCCCCCCCCCCC(=O)N[C@@H](CCCCN)C(=O)N[C@@H](Cc1ccccc1)C(=O)N[C@@H](CCCCN)C(=O)N[C@@H](Cc1c[nH]c2ccccc12)C(=O)N1CCC[C@H]1C(=O)N[C@@H](Cc1c[nH]c2ccccc12)C(N)=O) [SEQ ID NO: 80]
MIC, lipid length SAR [2]: 32 | MIC, lipid length SAR [3]: 32-64

KFFWPF-NH2 [SEQ ID NO: 36]
Anti-microbial activity (MIC) [4]: >128 | Anti-microbial activity (MIC) [3]: >128

Hep-KFKWPW-NH2 (Heptanoyl-KFKWPW-NH2; SMILES CCCCCCC(=O)N[C@@H](CCCCN)C(=O)N[C@@H](Cc1ccccc1)C(=O)N[C@@H](CCCCN)C(=O)N[C@@H](Cc1c[nH]c2ccccc12)C(=O)N1CCC[C@H]1C(=O)N[C@@H](Cc1c[nH]c2ccccc12)C(N)=O) [SEQ ID NO: 69]
MIC, lipid length SAR [2]: 128 | MIC, lipid length SAR [3]: 128

KPVKFK-NH2 [SEQ ID NO: 31]
Anti-microbial activity (MIC) [4]: >128 | Anti-microbial activity (MIC) [3]: >128

LLKWPW-NH2 [SEQ ID NO: 33]
Anti-microbial activity (MIC) [4]: >128 | Anti-microbial activity (MIC) [3]: >128

VAKKWK-NH2 [SEQ ID NO: 25]
Anti-microbial activity (MIC) [4]: >128 | Anti-microbial activity (MIC) [3]: >128

KPVWPF-NH2 [SEQ ID NO: 35]
Anti-microbial activity (MIC) [4]: >128 | Anti-microbial activity (MIC) [3]: >128

Ste-KFKWPW-NH2 (Stearoyl-KFKWPW-NH2; SMILES CCCCCCCCCCCCCCCCCC(=O)N[C@@H](CCCCN)C(=O)N[C@@H](Cc1ccccc1)C(=O)N[C@@H](CCCCN)C(=O)N[C@@H](Cc1c[nH]c2ccccc12)C(=O)N1CCC[C@H]1C(=O)N[C@@H](Cc1c[nH]c2ccccc12)C(N)=O) [SEQ ID NO: 74]
MIC, lipid length SAR [2]: >128 | MIC, lipid length SAR [3]: >128

VKVKPV-NH2 [SEQ ID NO: 13]
Anti-microbial activity (MIC) [4]: >128 | Anti-microbial activity (MIC) [3]: >128

KPWKFK-NH2 [SEQ ID NO: 29]
Anti-microbial activity (MIC) [4]: >128 | Anti-microbial activity (MIC) [3]: >128
